Laboratory results reported in patent US8841269B2, “Polynucleotides for use in treating and diagnosing cancers” (Creighton University, priority 2010, dated 2014).

Key:
Type in all cases: cell-based, human
ER-α36 mRNA = assay: Real-time PCR of ER-α36 mRNA after transfection; conditions: for ER-α36 mRNA expression: MDA-MB-231, mimics, vs negative control miRNA; for ER-α36 mRNA level: MDA-MB-231, two days post transfection
Experimental: To assess the expression levels of ER-α66 and ER-α36 with real-time PCR, total RNA was extracted using Trizol reagent (Invitrogen, Carsbad, Calif.). One microgram RNA was used for cDNA synthesis with the SuperScript III first-strand synthesis system (Invitrogen, Carsbad, Calif.). After 10 dilution, 4 μL cDNA was used in 20 μL reaction volume, which includes 4 μL of 1.5 μmol/L primers, 2 μL of 2 μmol/L probes, and 10 μL TaqMan universal PCR master mix with ampErase UNG (Applied Biosystems). The reaction condition was the same as miRNA real-time PCR. β-Actin was the internal control (Applied Biosystems, Foster City, Calif.). The primers for ER-α66 are: 5′-GCGGCCACGGACCAT (forward) (SEQ ID NO:20); 5′-[…] (SEQ ID NO:21) (reverse); 5′-FAM-[…]-TAMRA-3′ (probe) (SEQ ID NO:22). The primers for ER-α36 are: 5′-[…] (forward) (SEQ ID NO:23); 5′-[…] (reverse) (SEQ ID NO:24); 5′-[…] TAMRA-3′ (probe) (SEQ ID NO:43).
(§1) Let-7 miRNA or negative control #1 miRNA of 60 nmol/L (Ambion, Austin, Tex.) was transfected into cells with the siPORT NeoFX reagent (Ambion, Austin, Tex.) following the manufacturer's protocol.

MCF7 cells [1] = assay: Annexin-V binding assay for apoptosis in MCF7
Experimental: Annexin-V binding assay for apoptosis. […] The staining followed the protocol of FITC Annexin V Apoptosis Detection Kit I (Cat #556547, BD Biosciences). Cell populations were analyzed with a BD FACSAria™ flow cytometer. Approximately 20,000 cells were counted for each sample.

MCF7 cells [2] = assay: MTT cell proliferation assay in MCF7; conditions: for cell growth (MTT) with E2: MCF7, E2 free medium with addition of 10 nmol/L E2; for cell growth (MTT): MCF7, E2 free medium with or without addition of 10 nmol/L E2 (FIG. 9B-D); for day from which significant effect on proliferation was detected / cell proliferation (MTT): MCF7, normal growth medium; for cell proliferation (MTT): 60 nmol/L
Experimental: MTT cell proliferation assay. MCF7 cells were transfected with let-7 mimics or negative controls (60 nmol/L) in normal growth medium for 1 day, or in medium with 2.5% charcoal-stripped FBS for 2 days to exhaust endogenous estrogen, following the protocol of siPORT NeoFX Transfection Agent (Applied Biosystems). For the experiment in normal growth medium, 10^4 cells in the volume of 100 μL were seeded in a 96-well plate for 12 hours and assay lasted for another 4 days. For experiments in E2 free medium, 1.5 10^4 cells were seeded in a 96-well plate for 12 hours and then exposed to 10 nmol/L E2, or not, for up to 4 days. For both experiments, each treatment had 12 replicates on the plate. The cells were then incubated in 0.83 mg/mL 3-[4,5-dimethylthiazol-2-yl]-2,5-diphenyltetrazolium bromide (MTT) in growth medium at 37° C. for 4 h and lysed in 100 μL of DMSO at room temperature for 15 min. The absorbance in each well was measured at 490 nm by an ELx800 Absorbance Microplate Reader (Biotek). Cell proliferation was normalized to day 0.

cyclin D1 = assay: Immunoblot of cyclin D1 after transfection in MCF7; conditions: MCF7, mimics; for expression of cyclin D1 (protein): after 2 days; for protein expression of cyclin D1: after 6 days
From the text: (§2) Immunoblot analysis. For Western blot in FFPE tissues, an established method was followed (Addis et al., 2009, Proteomics 9:3815-23). For MCF7 cell line, let-7 mimics and negative control miRNA (60 nmol/L), or let-7 inhibitors and anti-miR negative control (60 nmol/L) were transfected following the protocol of siPORT NeoFX Transfection Agent (Applied Biosystems), The Western blot procedure was described before (Zhang et al., 2010, J Proteome Res., 9(2):980-989). Antibody information is as follows: ER-α, RB-9016-P1, Thermoscientific; Cyclin D1, sc-8396, Santa Cruz; pS2, ab80782 was Abeam; β-Actin, sc-69879, Santa Cruz.

[3] = Real-time PCR of let-7 levels after mimic transfection (Example 2)
Experimental: To analyze mature let-7 miRNAs with real-time PCR, total RNA was isolated from the cell lines using mirVana miRNA isolation kit (Ambion Inc., Austin, Tex.) or from FFPE tissues using the miRNeasy FFPE Kit (Qiagen, Valencia, Calif.) following the manufacturer's instructions. We collected FFPE breast tissues from 13 benign, 16 ductal carcinomas in situ (DCIS), and 15 invasive ductal carcinomas (IDC), all of which were prepared as 50 μm thick sheets. The benign breast tissues were from surgical resections of abnormal breast lesions with non-neoplastic phenotypes such as calcification, fibrocystic changes or stromal fibrosis. cDNA was synthesized using 100 ng total RNA in a reaction volume of 15 μL and following the protocol of Taqman microRNA reverse transcription kit (Applied Biosystems, Foster City, Calif.). After 15 dilution, 9 μl, cDNA mixture was used for real-time PCR in 20 μL reaction volume, including 10 μL of TaqMan universal PCR master mix (no ampErase UNG) and 1 μL Taqman probe (Applied Biosystems, Foster City, Calif.). Real-time PCR was performed on 7900HT realtime PCR instrument (Applied Biosystems). PCR was initiated by two holds of 52° C. 2 min and 94° C. 10 min each, followed by 40 cycles of 15 s at 95° C. and 1 min at 60° C. The level of each miRNA was expressed following the 2^−ΔCt method using the small nuclear RNA RNU48 as the internal reference.
as §1

pS2 = assay: Immunoblot of pS2 after transfection in MCF7; conditions: MCF7, mimics; for expression of pS2 (protein): after 2 days; for protein expression of pS2: after 6 days
From the text: as §2

[4] = MCF7-Tam, 6 days after transfection, vs negative control
[5] = MCF7-Tam, two days after transfection
[6] = MDA-MB-231, after 2 days, vs negative control cells

Row | Substance | ER-α36 mRNA expression (ER-α36 mRNA) | ER-α36 mRNA level (ER-α36 mRNA) | apoptotic rate (MCF7 cells [1]; MCF7, after 6 days) [%] | apoptotic rate (MCF7 cells [1]; MCF7, three days post-transfection) [%] | cell growth (MTT) with E2 (MCF7 cells [2]) | cell growth (MTT) (MCF7 cells [2]) | day from which significant effect on proliferation was detected (MCF7 cells [2]) [days] | cell proliferation (MTT) (MCF7 cells [2]) | expression of cyclin D1 (protein) (cyclin D1) | protein expression of cyclin D1 (cyclin D1) | increase of let-7 level after mimic transfection [3, 4] [fold] | increase of let-7 level after mimic transfection [3, 5] [fold] | increase of let-7 level after mimic transfection [3, 6] [fold] | expression of pS2 (protein) (pS2) | protein expression of pS2 (pS2) | effect on apoptosis (MCF7 cells [1]; MCF7, after either 3 days or 6 days)
1 | let-7b: let-7b miRNA (mimic), 3′-UUGGUGUGUUGGAUGAUGGAGU-5′ (SEQ ID NO:8) (chemistry not given here; listed 3' to 5') | 30 % of the controls | inhibited | 28.6 | 7 | consistent inhibition | strongly inhibited | 2 | significantly inhibited cell proliferation | significantly inhibited | significantly decreased | 100 | ~600 | ~400 | significantly inhibited | significantly suppressed | 
2 | let-7i: let-7i miRNA (mimic), 3′-UUGUCGUGUUUGAUGAUGGAGU-5′ (SEQ ID NO:14) (chemistry not given here; listed 3' to 5') | 30 % of the controls | inhibited |  |  | consistent inhibition | strongly inhibited | 3 | significantly inhibited cell proliferation | significantly inhibited | modest effect | 100 | ~300 | ~200 | significantly inhibited | significantly suppressed | not significant
